The values that follow are results of earlier work, collected in patent US7271001B2, “Method for mitochondrial targeting of p53” (The Research Foundation of State University of New York, priority 2004, dated 2007).

Series [1] relates to tumor-derived p53 mutant proteins. To be noted: cell-based assays in vitro.
Series [2] has as its system tumor xenografts. To be noted: tumor xenografts in nude mice.

Take `O=C1C2CCN(CC2)C1(CO)CO` [PRIMA-1]: in series [1], the “restoration of transcriptional p53 function” value is recorded as “can restore transcriptional p53 function”. Moreover, the tumor growth entry in series [2] was “slow tumor growth”.
Take `COc1ccc(/C=C/c2nc(NCCCN(C)C)c3ccccc3n2)cc1` [CP-31398]: the “restoration of transcriptional p53 function” value in series [1] was “can restore transcriptional p53 function”. Also, the tumor growth result in series [2] was “slow tumor growth”.
